In patent publication US11453679B2, “Methyl 2-methyl-5-oxo-1,4,5,7-tetradhydrofuro[3,4-b]pyridine-3-carboxylate compounds as Cav1.2 activators” (Novartis AG, priority 2020, dated 2022):

Tests used:
[1] = Compound exposure in wild-type mice (cerebellum and blood, mass spectrometry); details: male, C57BL/6J, mouse, brain (cerebellum) and whole blood
Protocol: Compound administration and brain tissue collection. Wild-type C57BL/6J male mice were obtained from Jackson laboratories (Bar Harbor, Me.). The acute, single-dose effects of Cav1.2 activators of the present disclosure were evaluated in male eight-week old mice (n=6 mice per compound). Each compound was dissolved in 10% PEG300, 10% Solutol, 10% Cremophore EL, and 70% Phosphate Buffered Saline and administered intraperitoneal (i.p.) at a concentration of 1 mg/kg up to 30 mg/kg depending on the compound. Animals were euthanized one hour after compound administration via exsanguination under deep anesthesia. Blood was collected in EDTA tubes for downstream analysis of drug levels. Brains were rapidly removed from the skull, and the cerebral cortex and cerebellum were regionally dissected. Cerebellar samples were snap frozen in liquid nitrogen to assess compound exposure.
Quantification of compound exposure. Cerebellar tissue samples were homogenized in 4 mL of 20% acetonitrile and 80% Phosphate buffered saline for every 1 g of tissue (5× dilution). Tissue was homogenized using either of the following three methods: hand held probe system, TissueLyser system with 5 mm steel bead at a frequency of 30 s^−1 for 4 min, or OMNI Bead Ruptor Elite homogenizer for 30 seconds to 1 minute depending on tissue type. Tissue samples were added to a 96-well plate (12.5 μL sample) and processed for quantification by mass spectrometry.

cFos mRNA = cFos mRNA induction in cortex of wild-type mice (quantitative PCR); type: in vivo, C57BL/6J male mice; details: one hour after administration
Protocol: Compound administration and brain tissue collection.
Quantification of cFos mRNA induction. Tissue homogenization was performed using TissueLyser system for 96 well plates (Qiagen). First, frozen cortical samples were thawed, removed from RNAlater, and placed into TissueLyser tubes along with Buffer RLT containing 0.5% Reagent DX and one 5 mm TissueLyser metal bead. The TissueLyser tubes were loaded into a TissueLyser II tissue homogenizer for 3 rounds of homogenization, with each round lasting 5 minutes at 30 Hz bead-beating frequency. Total RNA was purified from the homogenate using RNeasy 96 Plus kit (Qiagen), RNA concentration and A260/A280 ratio were quantified via the Nanodrop (ThermoFisher), and all samples were normalized to 100 ng/μl concentration. RNA was reverse transcribed into cDNA using the Superscript III First-strand synthesis SuperMix Kit (ThermoFisher). For each sample, 6 μl of RNA (600 ng total) was mixed with 1 μL of Oligo dT and 1 μL of annealing buffer and heated to 65° C. for 5 minutes. Next, 10 μL of 2× First-Strand Reaction Mix and 2 μL of the Enzyme mix were added to achieve a total reaction volume of 20 μL. The samples were heated to 50° C. for 50 minutes then 85° C. for 5 minutes to complete cDNA synthesis.
Quantitative PCR was performed on the cDNA samples using Quantitect Multiplex RT-PCR kit (Qiagen) in a 384-well assay format. Each PCR well contained 2 μL of cDNA (60 ng total), 10 μL of RT-PCR mastermix, 1 μL of cFos FAM Taqman probe (Mm00487425_m1 (FAM) #4351368), 1 μL of GAPDH VIC Taqman probe (Mm99999915-g1 (VIC) #4448486), 0.2 μL of Multiplex RT mix and 5.8 μl of RNase-free water. On the ViiA7 Real-Time PCR system (ThermoFisher), the samples were heated to 95° C. for 15 minutes then cycled between 94° C. for 45 seconds and 60° C. for 45 seconds for 45 cycles. cFos Ct values were exported, normalized to GAPDH Ct values, and converted to relative fold change in expression using the delta-delta Ct relative quantification method. cFos fold changes between compound treatments and vehicle were analyzed by one-way ANOVA, followed by Tukey's post-hoc comparisons.

human Cav1.2 [2] = biological target: T1, human Cav1.2 (Homo sapiens, UniProt Q13936); test: QPatch channel biophysics assay (current-voltage relationship, V1/2, tau of inactivation), Cav1.2-HEK293(AUX) cell line; type: cell-based; set-up: expressed in transfected cells; host or cells: Flp-In 293 T-Rex (HEK293), clone 2-19B, stably transfected with pCMV6-entry-CACNA1C and pcDNA5H/FRT-TO-CACNA2D2-FCS-P2A-CACNB2
Protocol: Clonal isolation was achieved under Neomycin selection.
Each experimental run uses 1.5 mL of cells.
The protocol had eight liquid periods. […] The protocol had four liquid periods.

human Cav1.2 [3] = biological target: T1, human Cav1.2; test: Sophion QPatch whole-cell voltage clamp dose-response assay, Cav1.2-HEK293(AUX) cell line (barium currents); details: for QPatch Emax: maximal fold change of peak inward current
Protocol: 24 hours prior an electrophysiology experiment, doxycycline (1 μg/ml) was added to the growth medium (Table 1), and 25 μM of verapamil was co-applied to prevent calcium influx triggered cell death. Cell confluency should reach 70%-80% right before the experiment.
To harvest cells (from a T175 cm^2 flask as an example), growth media were removed completely, and the cells were rinsed with 10 mL of D-PBS. D-PBS was aspirated, and 10 mL of Detachin (Genlantis) was added and the plate was placed in a 37° C. incubator for 10 minutes. Detached cells were placed into a 15 mL conical tube and spun at 1000 rpm for 2 minutes. Supernatant was removed, and cells were re-suspended in QPatch complete media (Table 2) to desired cell density of 1.5-3 million cells per QPatch run. Each experimental run uses 1.5 mL of cells.
The cells suspension was taken to the Sophion QPatch platform that uses whole-cell voltage clamp to measure barium currents conducted through Cav1.2 on single-hole QPlates. […] A dose-response assay protocol was used to determine the maximal fold change of peak inward current (Emax) and potency (EC50) of each compound. The protocol had eight liquid periods. The first liquid period was to stabilize current amplitude, which was monitored using repetitive 200-ms voltage pulses stepping from −80 mV to 0 mV. The second liquid period was to determine baseline current amplitude in the presence of vehicle control, using a single 20-ms voltage pulse stepping from −80 mV to 0 mV. The third through eighth liquid periods were used to ascertain a 6-dose response to compound treatments, also using single 20-ms voltage pulses stepping from −80 mV to 0 mV. The EC50 was generated using the following equation Iconcentration=Ibase+(Ifull−Ibase)*c^n/(XC50^n+c^n), where c is the concentration and n is the Hill coefficient constant. Ifull is the maximal current achievable, and Ibase is 0.

[4] = shift of half-way channel activation voltage (V1/2)
[5] = QPatch EC50, 6-point dose response, 20-ms pulses from −80 mV to 0 mV, n = 1 unless marked (* n = 2, # n = 3)
[6] = QPatch EC50, comparative examples, known CaV1.2 activators (Table 6)

T1 sequence (Q13936 whole entry): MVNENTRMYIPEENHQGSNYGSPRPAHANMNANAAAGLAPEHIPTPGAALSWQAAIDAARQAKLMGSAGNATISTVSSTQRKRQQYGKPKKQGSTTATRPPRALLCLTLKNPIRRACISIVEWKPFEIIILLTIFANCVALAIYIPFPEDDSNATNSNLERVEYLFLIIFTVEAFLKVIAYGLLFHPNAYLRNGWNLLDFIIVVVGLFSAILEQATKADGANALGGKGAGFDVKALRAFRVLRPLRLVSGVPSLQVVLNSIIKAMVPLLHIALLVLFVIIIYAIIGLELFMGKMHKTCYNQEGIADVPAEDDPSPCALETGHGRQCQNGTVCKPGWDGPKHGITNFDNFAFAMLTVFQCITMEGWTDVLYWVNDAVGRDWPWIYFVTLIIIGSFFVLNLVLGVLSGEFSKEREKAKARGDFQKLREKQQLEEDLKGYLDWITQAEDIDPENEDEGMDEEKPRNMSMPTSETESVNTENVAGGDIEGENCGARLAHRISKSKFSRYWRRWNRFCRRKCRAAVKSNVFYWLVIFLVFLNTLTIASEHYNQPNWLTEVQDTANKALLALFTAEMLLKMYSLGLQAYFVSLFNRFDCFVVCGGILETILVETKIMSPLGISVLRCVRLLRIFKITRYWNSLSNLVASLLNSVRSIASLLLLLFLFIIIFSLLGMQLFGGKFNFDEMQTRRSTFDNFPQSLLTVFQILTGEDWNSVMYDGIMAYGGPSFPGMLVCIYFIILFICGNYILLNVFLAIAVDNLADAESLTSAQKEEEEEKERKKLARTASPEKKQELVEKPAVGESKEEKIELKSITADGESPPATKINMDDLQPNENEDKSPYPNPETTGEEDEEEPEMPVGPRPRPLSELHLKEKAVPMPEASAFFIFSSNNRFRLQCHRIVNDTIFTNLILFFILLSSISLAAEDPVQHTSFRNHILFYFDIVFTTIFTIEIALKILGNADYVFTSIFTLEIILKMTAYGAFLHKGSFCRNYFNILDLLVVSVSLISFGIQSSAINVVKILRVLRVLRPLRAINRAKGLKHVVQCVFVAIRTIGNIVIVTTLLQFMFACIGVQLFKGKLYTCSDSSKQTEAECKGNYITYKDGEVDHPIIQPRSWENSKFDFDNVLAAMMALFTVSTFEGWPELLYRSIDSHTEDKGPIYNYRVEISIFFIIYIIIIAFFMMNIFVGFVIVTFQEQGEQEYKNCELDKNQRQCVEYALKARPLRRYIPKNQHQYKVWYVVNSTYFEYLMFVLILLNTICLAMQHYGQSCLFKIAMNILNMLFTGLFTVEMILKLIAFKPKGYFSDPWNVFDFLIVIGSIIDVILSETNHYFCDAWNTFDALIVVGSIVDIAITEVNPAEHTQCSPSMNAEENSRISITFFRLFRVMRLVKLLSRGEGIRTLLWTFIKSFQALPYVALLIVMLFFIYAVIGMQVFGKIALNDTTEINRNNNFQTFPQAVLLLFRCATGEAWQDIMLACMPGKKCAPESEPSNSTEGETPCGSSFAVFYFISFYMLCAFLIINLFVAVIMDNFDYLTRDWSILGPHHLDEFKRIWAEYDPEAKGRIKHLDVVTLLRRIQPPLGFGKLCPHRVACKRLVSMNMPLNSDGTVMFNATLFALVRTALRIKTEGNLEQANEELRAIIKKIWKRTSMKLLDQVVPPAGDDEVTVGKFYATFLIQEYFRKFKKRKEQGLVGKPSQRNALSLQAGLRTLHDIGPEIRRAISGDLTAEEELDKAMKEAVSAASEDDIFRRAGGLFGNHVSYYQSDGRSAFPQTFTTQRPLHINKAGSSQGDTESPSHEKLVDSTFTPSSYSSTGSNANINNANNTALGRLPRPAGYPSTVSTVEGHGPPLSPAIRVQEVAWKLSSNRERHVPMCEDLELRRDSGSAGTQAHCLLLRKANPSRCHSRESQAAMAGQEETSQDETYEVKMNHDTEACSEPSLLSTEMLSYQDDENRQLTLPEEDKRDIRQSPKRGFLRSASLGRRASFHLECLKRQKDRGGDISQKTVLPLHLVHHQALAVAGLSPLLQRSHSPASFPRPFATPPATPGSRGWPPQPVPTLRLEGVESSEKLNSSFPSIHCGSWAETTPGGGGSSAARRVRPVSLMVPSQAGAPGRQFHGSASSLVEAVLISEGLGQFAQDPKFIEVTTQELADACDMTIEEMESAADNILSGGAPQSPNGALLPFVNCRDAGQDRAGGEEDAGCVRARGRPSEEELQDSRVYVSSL
T1 sequence (Q9NY47 19-1001 partner limits assumed): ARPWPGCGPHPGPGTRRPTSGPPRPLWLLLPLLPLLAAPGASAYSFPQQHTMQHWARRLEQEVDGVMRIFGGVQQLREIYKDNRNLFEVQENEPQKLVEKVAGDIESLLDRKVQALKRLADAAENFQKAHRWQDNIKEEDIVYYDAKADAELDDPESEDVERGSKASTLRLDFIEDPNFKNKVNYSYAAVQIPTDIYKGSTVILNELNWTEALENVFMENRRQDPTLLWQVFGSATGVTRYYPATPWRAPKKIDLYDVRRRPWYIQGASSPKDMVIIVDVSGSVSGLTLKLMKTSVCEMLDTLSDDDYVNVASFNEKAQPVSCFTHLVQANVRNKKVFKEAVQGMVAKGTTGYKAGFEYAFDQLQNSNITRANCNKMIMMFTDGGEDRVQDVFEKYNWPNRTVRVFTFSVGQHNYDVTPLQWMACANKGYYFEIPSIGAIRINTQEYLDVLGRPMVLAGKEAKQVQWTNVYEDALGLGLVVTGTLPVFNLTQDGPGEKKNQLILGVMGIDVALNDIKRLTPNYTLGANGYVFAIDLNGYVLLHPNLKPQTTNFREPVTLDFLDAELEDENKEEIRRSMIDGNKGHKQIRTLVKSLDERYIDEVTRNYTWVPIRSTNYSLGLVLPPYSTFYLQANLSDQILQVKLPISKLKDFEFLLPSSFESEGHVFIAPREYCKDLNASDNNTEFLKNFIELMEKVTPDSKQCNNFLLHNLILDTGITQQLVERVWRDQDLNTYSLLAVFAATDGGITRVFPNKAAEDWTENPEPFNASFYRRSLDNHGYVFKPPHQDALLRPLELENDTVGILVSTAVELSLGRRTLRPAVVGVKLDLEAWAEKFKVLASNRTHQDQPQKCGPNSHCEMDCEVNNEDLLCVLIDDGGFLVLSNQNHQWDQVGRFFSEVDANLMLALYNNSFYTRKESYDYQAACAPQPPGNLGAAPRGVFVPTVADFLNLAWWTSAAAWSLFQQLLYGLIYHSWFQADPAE
T1 sequence (Q9NY47 1002-1150 partner limits assumed): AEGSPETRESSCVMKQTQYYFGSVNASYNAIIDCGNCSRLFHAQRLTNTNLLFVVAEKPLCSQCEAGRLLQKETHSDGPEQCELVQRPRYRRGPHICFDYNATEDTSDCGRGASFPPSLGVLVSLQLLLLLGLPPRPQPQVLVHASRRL
T1 sequence (Q08289 whole entry partner): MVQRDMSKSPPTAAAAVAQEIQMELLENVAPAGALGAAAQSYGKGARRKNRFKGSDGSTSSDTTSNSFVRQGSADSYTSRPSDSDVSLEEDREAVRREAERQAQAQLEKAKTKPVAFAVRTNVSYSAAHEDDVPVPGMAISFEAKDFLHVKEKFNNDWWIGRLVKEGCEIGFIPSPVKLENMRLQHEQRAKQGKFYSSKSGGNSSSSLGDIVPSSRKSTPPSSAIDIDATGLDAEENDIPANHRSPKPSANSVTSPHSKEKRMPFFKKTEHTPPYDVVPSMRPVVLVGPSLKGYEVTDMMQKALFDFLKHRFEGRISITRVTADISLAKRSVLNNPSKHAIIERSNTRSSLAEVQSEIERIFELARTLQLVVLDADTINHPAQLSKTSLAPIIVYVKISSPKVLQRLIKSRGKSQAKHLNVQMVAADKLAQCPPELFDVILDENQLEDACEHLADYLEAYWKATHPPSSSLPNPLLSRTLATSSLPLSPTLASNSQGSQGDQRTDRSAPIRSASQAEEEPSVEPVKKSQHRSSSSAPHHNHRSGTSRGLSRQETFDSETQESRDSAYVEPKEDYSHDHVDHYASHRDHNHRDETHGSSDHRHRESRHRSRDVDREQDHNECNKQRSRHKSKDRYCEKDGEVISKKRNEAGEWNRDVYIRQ

SMILES	Biophysics voltage shift (human Cav1.2 [2]; [4])	EC50 (human Cav1.2 [3]; [5])	QPatch Emax (human Cav1.2 [3])	QPatch Emax (human Cav1.2 [3]; comparative examples (Table 6))	other results
COC(=O)C1=C(C)NC2=C(C(=O)OC2)[C@H]1c1cccc(F)c1[C@H]1CC1(F)F (single isomer, unassigned) [Example 1, Methyl (S)-4-(2-((R or S)-2,2-difluorocyclopropyl)-3-fluorophenyl)-2-methyl-5-oxo-1,4,5,7-tetrahydrofuro[3,4-b]pyridine-3-carboxylate]	−4.5 mV	130 nM	2.0	–	Kp at 1 h ([1]; ip): 1.1; % ↑cFOS mRNA cortex (3 mg/kg ip) (cFos mRNA): 169%; % ↑cFOS mRNA cortex (10 mg/kg ip) (cFos mRNA): 350%
COC(=O)C1=C(C)NC2=C(C(=O)OC2)[C@H]1c1cccc(F)c1C1CCC1 (single isomer, unassigned) [Example 3]	−6.6 mV	80 nM	1.8	–	–
COC(=O)C1=C(C)NC2=C(C(=O)OC2)[C@H]1c1cccc(F)c1C1CC1 (single isomer, unassigned) [Example 4]	−4.5 mV	110 nM	2.1	–	Kp at 1 h ([1]; ip): 1.2; % ↑cFOS mRNA cortex (3 mg/kg ip) (cFos mRNA): 247%; % ↑cFOS mRNA cortex (10 mg/kg ip) (cFos mRNA): 398%
COC(=O)C1=C(C)NC2=C(C(=O)OC2)[C@H]1c1cc(F)cc(F)c1[C@H]1CC1(F)F (single isomer, unassigned) [Example 5, Methyl (S)-4-(2-((R or S)-2,2-difluorocyclopropyl)-3,5-difluorophenyl)-2-methyl-5-oxo-1,4,5,7-tetrahydrofuro[3,4-b]pyridine-3-carboxylate]	−7.2 mV	53 nM	2.5	–	–
COC(=O)C1=C(C)NC2=C(C(=O)OC2)[C@H]1c1cc(F)cc(F)c1[C@H]1CC1(F)F (single isomer, unassigned) [Example 6, Methyl (S)-4-(2-((R or S)-2,2-difluorocyclopropyl)-3,5-difluorophenyl)-2-methyl-5-oxo-1,4,5,7-tetrahydrofuro[3,4-b]pyridine-3-carboxylate]	−4.8 mV	81 nM	2.6	–	–
COC(=O)C1=C(C)NC2=C(C(=O)OC2)[C@H]1c1cc(F)cc(F)c1[C@@H](C)F (single isomer, unassigned) [Example 7, Methyl (S)-4-(3,5-difluoro-2-((S or R)-1-fluoroethyl)phenyl)-2-methyl-5-oxo-1,4,5,7-tetrahydrofuro[3,4-b]pyridine-3-carboxylate]	−6.6 mV	30 nM	1.7	–	Kp at 1 h ([1]; ip): 1.7; % ↑cFOS mRNA cortex (3 mg/kg ip) (cFos mRNA): 158%
COC(=O)C1=C(C)NC2=C(C(=O)OC2)[C@H]1c1cccc(F)c1C(C)(C)F (single isomer, unassigned) [Example 8]	–	218 nM	1.6	–	–
COC(=O)C1=C(C)NC2=C(C(=O)OC2)[C@H]1c1cccc(F)c1CC(F)(F)F (single isomer, unassigned) [Example 9]	−6.6 mV	130 nM	1.5	–	Kp at 1 h ([1]; ip): 2.3; % ↑cFOS mRNA cortex (3 mg/kg ip) (cFos mRNA): 112%
COC(=O)C1=C(C)NC2=C(C(=O)OC2)[C@H]1c1cccc(F)c1[C@H](C)F (single isomer, unassigned) [Example 10, Methyl (S)-4-(3-fluoro-2-((S or R)-1-fluoroethyl)phenyl)-2-methyl-5-oxo-1,4,5,7-tetrahydrofuro[3,4-b]pyridine-3-carboxylate]	–	40 nM	2.2	–	Kp at 1 h ([1]; ip): 0.9; % ↑cFOS mRNA cortex (3 mg/kg ip) (cFos mRNA): 204%
COC(=O)C1=C(C)NC2=C(C(=O)OC2)[C@H]1c1cccc(F)c1[C@@H](F)CF (single isomer, unassigned) [Example 11, Methyl (S)-4-(2-((R or S)-1,2-difluoroethyl)-3-fluorophenyl)-2-methyl-5-oxo-1,4,5,7-tetrahydrofuro[3,4-b]pyridine-3-carboxylate]	−6.8 mV	40 nM	1.4	–	–
CCc1c(F)cc(F)cc1[C@H]1C(C(=O)OC)=C(C)NC2=C1C(=O)OC2 (single isomer, unassigned) [Example 12]	−7.4 mV	110 nM	1.4	–	Kp at 1 h ([1]; ip): 0.8; % ↑cFOS mRNA cortex (3 mg/kg ip) (cFos mRNA): 128%
COC(=O)C1=C(C)NC2=C(C(=O)OC2)[C@H]1c1cc(F)cc(F)c1C(C)C (single isomer, unassigned) [Example 18]	−6.5 mV	102 nM	2.2	–	–
COC(=O)C1=C(C)NC2=C(C(=O)OC2)[C@H]1c1cccc(F)c1C1CC(F)C1 (single isomer, unassigned) [Example 20]	−6.1 mV	86 nM	1.6	–	–
COC(=O)C1=C(C)NC(C)=C([N+](=O)[O-])[C@H]1c1ccccc1C(F)(F)F (single isomer, unassigned) [reference compound]	–	–	–	3.9	–
CCOC(=O)C1=C(C)NC2=C(C(=O)OC2)[C@H]1c1ccccc1OCc1ccccc1 (single isomer, unassigned) [reference compound]	–	–	–	4.3	Biophysics voltage shift (human Cav1.2 [2]; comparative examples (Table 6)): −15.4 mV; EC50 (human Cav1.2 [3]; [6]): 450 nM
CCOC(=O)C1=C(C)NC2=C(C(=O)OC2)[C@H]1c1ccccc1OC(F)F (single isomer, unassigned) [reference compound]	–	–	–	2.2	Kp at 1 h ([1]; intraperitoneal): 0.23; Biophysics voltage shift (human Cav1.2 [2]; comparative examples (Table 6)): −6.7 mV; EC50 (human Cav1.2 [3]; [6]): 280 nM
COC(=O)C1=C(C)NC2=C(C(=O)OC2)C1c1ccccc1C (single isomer, unassigned) [reference compound]	–	–	–	1.4	EC50 (human Cav1.2 [3]; [6]): 2240 nM
COC(=O)C1=C(C)NC2=C(C(=O)OC2)C1c1ccccc1C(F)(F)F (single isomer, unassigned) [reference compound]	–	–	–	1.4	Biophysics voltage shift (human Cav1.2 [2]; comparative examples (Table 6)): −4.3 mV; EC50 (human Cav1.2 [3]; [6]): 360 nM
COC(=O)C1=C(C)NC2=C(C(=O)OC2)C1c1ccccc1OC(F)F (single isomer, unassigned) [reference compound]	–	–	–	1.7	Biophysics voltage shift (human Cav1.2 [2]; comparative examples (Table 6)): −7.1 mV; EC50 (human Cav1.2 [3]; [6]): 510 nM
CCOC(=O)C1=C(C)NC2=C(C(=O)OC2)C1c1ccccc1C(F)(F)F (single isomer, unassigned) [reference compound]	–	–	–	1.9	EC50 (human Cav1.2 [3]; [6]): 930 nM
COC(=O)C1=C(C)NC2=C(C(=O)OC2)[C@H]1c1cccc(F)c1CC(F)F [Example 17, (S)-methyl 4-(2-(2,2-difluoroethyl)-3-fluorophenyl)-2-methyl-5-oxo-1,4,5,7-tetrahydrofuro[3,4-b]pyridine-3-carboxylate]	−6.6 mV	271 nM	1.8	–	–
